In patent US20100041892A1, “Therapeutic agent for diabetes” (priority 2005, published 2010):
Where two headings read alike, the source gives them in different places.

Tests used:
[1] = biological target: T1, PPARγ-RXRα heterodimer (Homo sapiens, UniProt P37231); assay: PPARγ-RXRα heterodimer ligand activity (luciferase reporter, PPARγ:RXRα:4ERPP/CHO-K1 cells); format: cell-based; conditions: concentration showing 50% of the maximum luciferase induction rate; CHO-K1 reporter cells, one day incubation
T1 construct: expressed in transfected cells; host or cells: CHO-K1 (PPARγ:RXRα:4ERPP/CHO-K1)
T1 sequence (P37231 1-477 isoform P37231-2): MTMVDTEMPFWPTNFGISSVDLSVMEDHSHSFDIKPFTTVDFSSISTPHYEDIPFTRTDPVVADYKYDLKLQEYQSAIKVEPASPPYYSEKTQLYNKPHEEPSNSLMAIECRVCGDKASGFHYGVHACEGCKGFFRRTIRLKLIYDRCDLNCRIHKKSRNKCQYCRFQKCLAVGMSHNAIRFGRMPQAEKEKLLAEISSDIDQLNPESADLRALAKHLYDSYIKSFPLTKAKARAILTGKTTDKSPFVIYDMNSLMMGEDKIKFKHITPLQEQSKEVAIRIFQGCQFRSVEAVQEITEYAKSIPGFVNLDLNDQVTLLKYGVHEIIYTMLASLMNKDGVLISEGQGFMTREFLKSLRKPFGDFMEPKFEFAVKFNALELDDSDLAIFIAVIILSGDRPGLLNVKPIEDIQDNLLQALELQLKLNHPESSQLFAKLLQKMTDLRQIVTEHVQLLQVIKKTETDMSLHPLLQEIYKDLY
T1 sequence (P19793 1-462 partner): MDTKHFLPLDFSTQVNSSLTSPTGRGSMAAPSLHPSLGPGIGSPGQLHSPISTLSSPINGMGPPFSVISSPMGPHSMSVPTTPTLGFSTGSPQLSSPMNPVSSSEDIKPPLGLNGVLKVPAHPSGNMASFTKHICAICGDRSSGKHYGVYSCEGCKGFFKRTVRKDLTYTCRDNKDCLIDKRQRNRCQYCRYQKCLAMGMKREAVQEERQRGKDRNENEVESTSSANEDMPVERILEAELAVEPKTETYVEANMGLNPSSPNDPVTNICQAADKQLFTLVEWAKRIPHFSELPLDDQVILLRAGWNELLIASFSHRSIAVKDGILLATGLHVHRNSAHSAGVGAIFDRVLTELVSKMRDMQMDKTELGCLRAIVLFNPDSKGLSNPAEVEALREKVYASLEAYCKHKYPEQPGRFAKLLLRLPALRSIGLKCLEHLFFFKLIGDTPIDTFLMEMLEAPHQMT
Description: The PPARγ:RXRα:4ERPP/CHO-K1 cells described in WO03/099793 were cultured in a Ham F12 medium [manufactured by Life Technologies, Inc., US] containing 10% calf fetal serum [manufactured by Life Technologies, Inc., US], sown in a 96-well white plate (manufactured by Corning Coster Corporation, US] at 1×10^4 cells/well, and incubated overnight in a carbon dioxide gas incubator at 37° C.
Then, the medium was removed from the 96 well white plate, 45 μl of Ham F12-medium containing 0.1% fatty acid-free bovine serum albumin (BSA) and a test compound (5 μl) were added, and the cells were incubated for one day in a carbon dioxide gas incubator at 37° C. The medium was removed, 20 μl of PicaGene 7.5 (manufactured by Wako Pure Chemical Industries, Ltd.) 2-fold diluted with HBSS (HANKS' BALANCED SALT SOLUTION) [manufactured by BIO WHITTAKER, US] was added. After stirring, the luciferase activity was determined using the 1420 ARVO Multilabel Counter [manufactured by PerkinElmer, US].
The induction rate was calculated from the luciferase activity of each test compound based on the luciferase activity of the test compound non-administration group as 1. The test compound concentration and the induction rate were analyzed by PRISM [manufactured by GraphPad Software, Inc., US] to calculate EC50 value (compound concentration showing 50% of the maximum value of induction rate) of the test compound.

[2] = tested on: KKAy mice; assay: Blood glucose and blood lipid (triglyceride) lowering action in mice; format: in vivo; conditions: Mus musculus, 4TO7, po, 0.03% in powder diet, 4 to 7 days
Source text: The test compound was mixed with a powder diet (CE-2, CLEA JAPAN, INC.) at a proportion of 0.01% (0.03% for the compounds of Examples 1, 2, 12, 81, 94, 96, 129 and 143, and 0.005% for the compounds of Examples 28, 30 and 37) and freely given to KKAy mice (9 to 14-week-old, 5 mice per group) which are obesity non-insulin-dependent diabetes (type-2 diabetes) models, for 4 to 7 days. During this period, water was freely given. The blood was drawn from the orbital venous plexus. Glucose and triglyceride in the plasma separated from the blood were quantitated using L Type Wako Glu2 (Wako Pure Chemical Industries, Ltd.) and L Type Wako TG·H (Wako Pure Chemical Industries, Ltd.), respectively, according to an enzyme method.

Compound | EC50 [1] [nM] | melting point [°C] | response vs control in vivo at 0.03 % ([2]; plasma glucose relative to non-administration group = 100%, read-out: hypoglycemic action (%)) [%] | response vs control in vivo at 0.03 % ([2]; plasma triglyceride relative to non-administration group = 100%, read-out: hypolipidemic action (%)) [%]
CCCCCS(=O)(=O)NC(=O)/C=C/c1ccc(OC(C)C)cc1Oc1ncc(C(F)(F)F)cc1Cl [Example 13, (2E)-3-[2-{[3-chloro-5-(trifluoromethyl)pyridin-2-yl]oxy}-4-isopropoxyphenyl]-N-(pentylsulfonyl)acrylamide] | 26 | – | – | –
CCCCCS(=O)(=O)NC(=O)CCc1ccc(OCC(=O)N(CC)CC)cc1Oc1ncc(C(F)(F)F)cc1Cl [Example 44, 3-{2-{[3-chloro-5-(trifluoromethyl)pyridin-2-yl]oxy}-4-[2-(diethylamino)-2-oxoethoxy]phenyl}-N-(pentylsulfonyl)propanamide] | 6.9 | – | – | –
CCCCCS(=O)(=O)NC(=O)CCc1ccc(OCCN2CCCC2=O)cc1Oc1ncc(C(F)(F)F)cc1Cl [Example 47, 3-{2-{[3-chloro-5-(trifluoromethyl)pyridin-2-yl]oxy}-4-[2-(2-oxopyrrolidin-1-yl)ethoxy]phenyl}-N-(pentylsulfonyl)propanamide] | 3.4 | – | – | –
CCCCCS(=O)(=O)NC(=O)OCc1ccc(OS(=O)(=O)CCC)cc1Oc1ncc(C(F)(F)F)cc1Cl [Example 64, 3-{[3-chloro-5-(trifluoromethyl)pyridin-2-yl]oxy}-4-[({[(pentylsulfonyl)amino]carbonyl}oxy)methyl]phenyl propane-1-sulfonate] | 8.7 | 86 to 89 | – | –
CCCCCS(=O)(=O)NC(=O)/C=C/c1cc(OC(C)C)nn1Cc1ccc(C(F)(F)F)cc1Cl [Example 111, (2E)-3-{1-[2-chloro-4-(trifluoromethyl)benzyl]-3-isopropoxy-1H-pyrazol-5-yl}-N-(pentylsulfonyl)acrylamide] | 9.3 | – | – | –
CCCCCS(=O)(=O)NC(=O)CCc1cc(OC(C)C)nn1Cc1ccc(C(F)(F)F)cc1Cl [Example 143, 3-{1-[2-chloro-4-(trifluoromethyl)benzyl]-3-isopropoxy-1H-pyrazol-5-yl}-N-(pentylsulfonyl)propanamide] | – | – | 47 | 76
CCCCCS(=O)(=O)NC(=O)CCc1ccc(OCCOC)cc1OCc1nc(-c2ccccc2)oc1C [Example 173, 3-{4-(2-methoxyethoxy)-2-[(5-methyl-2-phenyl-1,3-oxazol-4-yl)methoxy]phenyl}-N-(pentylsulfonyl)propanamide] | 9.8 | 95.9 to 96.7 | – | –
CCCCCS(=O)(=O)NC(=O)/C(C)=C/c1ccc(OCCCOC)cc1Oc1ncc(Cl)cc1Cl [Example 190, (2E)-3-[2-[(3,5-dichloropyridin-2-yl)oxy]-4-(3-methoxypropoxy)phenyl]-2-methyl-N-(pentylsulfonyl)acrylamide] | 15 | 116 to 116.8 | – | –
CCCCCS(=O)(=O)NC(=O)/C=C/c1cc(OC(C)C)nn1Cc1ncc(C(F)(F)F)cc1Cl [Example 199, (2E)-3-(1-{[3-chloro-5-(trifluoromethyl)pyridin-2-yl]methyl}-3-isopropoxy-1H-pyrazol-5-yl)-N-(pentylsulfonyl)acrylamide] | 13 | – | – | –
CCCCCS(=O)(=O)NC(=O)C(C)Cc1ccc(OCCOC)cc1Oc1ncc(C(F)(F)F)cc1Cl (centres unmarked) [Example 209, 3-[2-{[3-chloro-5-(trifluoromethyl)pyridin-2-yl]oxy}-4-(2-methoxyethoxy)phenyl]-2-methyl-N-(pentylsulfonyl)propanamide] | 2.3 | – | – | –
C/C(=C\c1ccc(OC(C)C)cc1Oc1ncc(C(F)(F)F)cc1Cl)C(=O)NS(=O)(=O)NC1CCC(C)CC1 (centres unmarked) [Example 223, (2E)-3-(2-{[3-chloro-5-(trifluoromethyl)pyridin-2-yl]oxy}-4-isopropoxyphenyl)-2-methyl-N-{[(4-methylcyclohexyl)amino]sulfonyl}acrylamide] | 55 | 176.8 to 177.2 | – | –
CCCCCNS(=O)(=O)NC(=O)/C(C)=C/c1ccc(OC(C)C)cc1Oc1ncc(C(F)(F)F)cc1Cl [Example 224, (2E)-3-(2-{[3-chloro-5-(trifluoromethyl)pyridin-2-yl]oxy}-4-isopropoxyphenyl)-2-methyl-N-[(pentylamino)sulfonyl]acrylamide] | 16 | 137.8 to 138.5 | – | –
CCCCCS(=O)(=O)NC(=O)/C=C/c1ccc(OCCCOC)cc1Oc1ncc(C(F)(F)F)cc1Cl [Example 251, (2E)-3-[2-{[3-chloro-5-(trifluoromethyl)pyridin-2-yl]oxy}-4-(3-methoxypropoxy)phenyl]-N-(pentylsulfonyl)acrylamide] | 7.4 | – | – | –
CCCCCS(=O)(=O)NC(=O)/C=C/c1ccc(OCCCC#N)cc1Oc1ncc(C(F)(F)F)cc1Cl [Example 451, (2E)-3-[2-{[3-chloro-5-(trifluoromethyl)pyridin-2-yl]oxy}-4-(3-cyanopropoxy)phenyl]-N-(pentylsulfonyl)acrylamide] | 15 | – | – | –

More lines, main results first:

EC50 [1] [nM] | melting point [°C] | Compound | response vs control in vivo at 0.03 % ([2]; plasma glucose relative to non-administration group = 100%, read-out: hypoglycemic action (%)) [%] | response vs control in vivo at 0.03 % ([2]; plasma triglyceride relative to non-administration group = 100%, read-out: hypolipidemic action (%)) [%]
6.6 | 147 to 150 | COCCOc1ccc(CCCOC(=O)NS(=O)(=O)c2ccc(Cl)cc2)c(Oc2ncc(C(F)(F)F)cc2Cl)c1 [Example 32, 3-[2-{[3-chloro-5-(trifluoromethyl)pyridin-2-yl]oxy}-4-(2-methoxyethoxy)phenyl]propyl [(4 chlorophenyl)sulfonyl]carbamate] | – | –
20 | 87.8 to 87.9 | COCCOc1ccc(CCCOC(=O)NCC2CC2)c(Oc2ncc(C(F)(F)F)cc2Cl)c1 [Example 51, 3-[2-{[3-chloro-5-(trifluoromethyl)pyridin-2-yl]oxy}-4-(2-methoxyethoxy)phenyl]propyl (cyclopropylmethyl)carbamate] | – | –
16 | 130 to 131 | C/C(=C\c1ccc(OC(C)C)cc1Oc1ncc(C(F)(F)F)cc1Cl)C(=O)NS(=O)(=O)NCCc1cccs1 [Example 225, (2E)-3-(2-{[3-chloro-5-(trifluoromethyl)pyridin-2-yl]oxy}-4-isopropoxyphenyl)-2-methyl-N-({[2-(2-thienyl)ethyl]amino}sulfonyl)acrylamide] | – | –
4.7 | – | COCCOc1ccc(CCCOC(=O)NS(=O)(=O)N2Cc3ccccc3C2)c(Oc2ncc(C(F)(F)F)cc2Cl)c1 [Example 371, 3-[2-{[3-chloro-5-(trifluoromethyl)pyridin-2-yl]oxy}-4-(2-methoxyethoxy)phenyl]propyl (1,3-dihydro-2H-isoindol-2-ylsulfonyl)carbamate] | – | –
22 | – | COCCOc1ccc(CCCOC(=O)NS(=O)(=O)NCCc2ccccn2)c(Oc2ncc(Cl)cc2Cl)c1 [Example 427, 3-[2-[(3,5-dichloropyridin-2-yl)oxy]-4-(2-methoxyethoxy)phenyl]propyl {[(2-pyridin-2-ylethyl)amino]sulfonyl}carbamate] | – | –
– | 118 to 119.8 | CC(C)OCCNS(=O)(=O)NC(=O)OCCCc1ccc(OCc2ccco2)cc1Oc1ncc(C(F)(F)F)cc1Cl [Example 476, 3-[2-{[3-chloro-5-(trifluoromethyl)pyridin-2-yl]oxy}-4-(2-furylmethoxy)phenyl]propyl {[(2-isopropoxyethyl)amino]sulfonyl}carbamate] | – | –
